Results taken from ChEMBL document CHEMBL1201862, “PubChem BioAssay data set” (2004).
Calls of active or inactive are those of the source.

Tests used:
[1] = target: T1, Probable nicotinate-nucleotide adenylyltransferase (Staphylococcus aureus (strain N315), UniProt P65502); assay type: functional, Staphylococcus aureus subsp. aureus N315; settings: read-out: IC50_Mean;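 on IC50 Mean: confirmatory dose-response retesting of NadD inhibitor hits first found in an ultra-high-throughput screen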
[2] = target: T1, Probable nicotinate-nucleotide adenylyltransferase; assay type: functional, Staphylococcus aureus subsp. aureus N315
[3] = target: Steroidogenic factor 1 (Homo sapiens, UniProt Q13285); experiment: Counterscreen for inverse agonists of the liver receptor homolog-1 (LRH-1; NR5A2): Luminescence-based cell-based high throughput dose response assay to identify inverse agonists of the Steroidogenic Factor 1 Nuclear Receptor (SF1; NR5A1).; assay type: functional
Steroidogenic factor 1, sequence (Q13285 whole entry): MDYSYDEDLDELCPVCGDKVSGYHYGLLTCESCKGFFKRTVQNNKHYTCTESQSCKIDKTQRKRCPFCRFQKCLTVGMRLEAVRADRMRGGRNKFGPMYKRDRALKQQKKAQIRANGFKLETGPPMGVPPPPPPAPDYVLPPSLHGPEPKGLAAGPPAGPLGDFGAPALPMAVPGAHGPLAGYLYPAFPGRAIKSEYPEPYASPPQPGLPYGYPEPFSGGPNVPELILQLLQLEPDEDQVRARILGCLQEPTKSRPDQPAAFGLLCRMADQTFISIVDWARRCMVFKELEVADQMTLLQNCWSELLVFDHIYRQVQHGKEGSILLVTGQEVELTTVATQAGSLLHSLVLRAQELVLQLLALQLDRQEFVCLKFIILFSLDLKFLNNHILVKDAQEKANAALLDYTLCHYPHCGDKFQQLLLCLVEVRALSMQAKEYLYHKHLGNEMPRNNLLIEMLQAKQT

[4] = nonselective StAR promoter luciferase inhibitors – cell-based, luminescence, luciferase reporter, counter-screen for LRH-1 inverse agonist project, dose response (AID 651969); assay type: functional
[5] = target: Nuclear receptor subfamily 5 group A member 2 (Homo sapiens, UniProt O00482); assay type: functional, cell-based;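 further: HEK293T cells transfected with LRH-1 and a StAR promoter luciferase reporter; potency for inhibitors that lower LRH-1 driven reporter light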
Nuclear receptor subfamily 5 group A member 2, sequence (O00482 whole entry): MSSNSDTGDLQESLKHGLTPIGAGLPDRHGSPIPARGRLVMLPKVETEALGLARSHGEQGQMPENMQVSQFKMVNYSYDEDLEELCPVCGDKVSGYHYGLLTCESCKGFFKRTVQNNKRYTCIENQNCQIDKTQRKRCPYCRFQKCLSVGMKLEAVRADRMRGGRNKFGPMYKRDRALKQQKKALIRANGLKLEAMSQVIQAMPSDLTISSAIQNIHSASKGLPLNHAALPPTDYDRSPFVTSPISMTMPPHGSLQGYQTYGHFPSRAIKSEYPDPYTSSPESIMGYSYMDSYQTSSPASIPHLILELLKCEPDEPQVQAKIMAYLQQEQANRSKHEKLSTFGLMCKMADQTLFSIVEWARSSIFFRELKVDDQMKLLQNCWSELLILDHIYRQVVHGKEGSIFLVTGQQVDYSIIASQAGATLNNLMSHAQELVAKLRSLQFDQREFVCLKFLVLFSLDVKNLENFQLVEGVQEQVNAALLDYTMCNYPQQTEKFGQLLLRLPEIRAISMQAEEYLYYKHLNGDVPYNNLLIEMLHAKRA

[6] = target: Prothrombin (Bos taurus, UniProt P00735); experiment: thrombin protease inhibitors – biochemical, fluorescence polarization, uHTS hits, dose response (AID 602369); assay type: functional
[7] = target: 26S proteasome non-ATPase regulatory subunit 14 (Homo sapiens, UniProt O00487); experiment: inhibition of proteasome subunit RPN11 – biochemical, fluorescence polarization, uHTS hits, confirmation (AID 602368); assay type: functional
26S proteasome non-ATPase regulatory subunit 14, sequence (O00487 whole entry): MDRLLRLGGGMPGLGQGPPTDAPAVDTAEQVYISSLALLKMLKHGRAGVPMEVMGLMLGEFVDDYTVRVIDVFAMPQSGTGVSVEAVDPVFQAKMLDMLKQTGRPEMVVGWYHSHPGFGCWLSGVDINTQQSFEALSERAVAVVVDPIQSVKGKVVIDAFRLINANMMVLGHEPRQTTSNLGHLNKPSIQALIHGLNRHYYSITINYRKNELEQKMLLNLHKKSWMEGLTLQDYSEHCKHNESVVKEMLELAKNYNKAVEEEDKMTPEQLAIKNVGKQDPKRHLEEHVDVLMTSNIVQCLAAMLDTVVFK

[8] = target: 72 kDa type IV collagenase (Homo sapiens, UniProt P08253); experiment: Dose Response validation of uHTS RPN11 inhibitor hits using a MMP-2 Fluorescence assay.; assay type: functional
72 kDa type IV collagenase, sequence (P08253 whole entry): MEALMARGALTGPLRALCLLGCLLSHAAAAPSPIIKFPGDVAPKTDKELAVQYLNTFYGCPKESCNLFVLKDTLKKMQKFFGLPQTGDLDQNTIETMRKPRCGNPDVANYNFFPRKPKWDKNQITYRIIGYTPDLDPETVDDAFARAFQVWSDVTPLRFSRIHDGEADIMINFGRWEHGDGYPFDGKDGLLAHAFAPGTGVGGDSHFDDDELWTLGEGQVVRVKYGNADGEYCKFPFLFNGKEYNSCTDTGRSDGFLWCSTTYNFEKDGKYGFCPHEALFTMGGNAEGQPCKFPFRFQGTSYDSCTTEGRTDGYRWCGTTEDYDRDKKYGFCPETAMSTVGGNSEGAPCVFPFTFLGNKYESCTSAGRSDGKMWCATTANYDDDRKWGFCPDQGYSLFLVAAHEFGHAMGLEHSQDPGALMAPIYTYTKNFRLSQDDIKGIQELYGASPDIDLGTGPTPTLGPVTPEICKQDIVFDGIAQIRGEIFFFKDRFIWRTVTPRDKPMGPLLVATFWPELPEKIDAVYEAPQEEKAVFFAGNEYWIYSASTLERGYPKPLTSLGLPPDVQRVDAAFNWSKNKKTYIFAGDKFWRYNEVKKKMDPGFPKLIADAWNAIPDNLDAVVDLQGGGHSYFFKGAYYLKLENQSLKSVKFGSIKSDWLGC

[9] = target: Dual specificity tyrosine-phosphorylation-regulated kinase 1A (Rattus norvegicus, UniProt Q63470); assay type: biochemical, Homo sapiens
[10] = inhibition of ARNT PAS-B/TACC3 complex formation – biochemical, AlphaScreen, cherry-picked samples, confirmation (AID 651703); assay type: functional, Homo sapiens;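 further: His-tagged ARNT PAS-B domain paired with GST-TACC3 E629A dimer coactivator fragment; potency of inhibitors that break up the complex and lower AlphaScreen signal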
[11] = target: T2, Type-1 angiotensin II receptor (Homo sapiens, UniProt P30556); experiment: antagonism of angiotensin II type 1 receptor – cell-based, uHTS hits, selectivity assay for APJ receptor antagonist project, dose response (AID 463214); assay type: functional;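 further: antagonist potency against angiotensin II stimulated AT1 response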
T2 sequence (P30556 whole entry): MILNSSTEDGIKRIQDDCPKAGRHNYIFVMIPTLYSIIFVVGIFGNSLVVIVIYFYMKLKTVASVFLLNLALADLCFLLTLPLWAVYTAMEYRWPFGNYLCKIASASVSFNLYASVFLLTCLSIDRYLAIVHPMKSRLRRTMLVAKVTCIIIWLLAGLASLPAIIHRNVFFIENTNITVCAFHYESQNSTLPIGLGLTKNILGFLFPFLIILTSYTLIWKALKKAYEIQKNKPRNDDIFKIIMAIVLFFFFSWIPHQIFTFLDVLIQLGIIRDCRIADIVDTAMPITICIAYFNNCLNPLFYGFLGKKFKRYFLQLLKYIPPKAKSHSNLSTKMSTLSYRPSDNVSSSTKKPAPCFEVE

[12] = target: Beta-galactosidase (Escherichia coli, UniProt Q8VNN2); experiment: PubChem AID 485352; assay type: functional
Beta-galactosidase, sequence (Q8VNN2 whole entry): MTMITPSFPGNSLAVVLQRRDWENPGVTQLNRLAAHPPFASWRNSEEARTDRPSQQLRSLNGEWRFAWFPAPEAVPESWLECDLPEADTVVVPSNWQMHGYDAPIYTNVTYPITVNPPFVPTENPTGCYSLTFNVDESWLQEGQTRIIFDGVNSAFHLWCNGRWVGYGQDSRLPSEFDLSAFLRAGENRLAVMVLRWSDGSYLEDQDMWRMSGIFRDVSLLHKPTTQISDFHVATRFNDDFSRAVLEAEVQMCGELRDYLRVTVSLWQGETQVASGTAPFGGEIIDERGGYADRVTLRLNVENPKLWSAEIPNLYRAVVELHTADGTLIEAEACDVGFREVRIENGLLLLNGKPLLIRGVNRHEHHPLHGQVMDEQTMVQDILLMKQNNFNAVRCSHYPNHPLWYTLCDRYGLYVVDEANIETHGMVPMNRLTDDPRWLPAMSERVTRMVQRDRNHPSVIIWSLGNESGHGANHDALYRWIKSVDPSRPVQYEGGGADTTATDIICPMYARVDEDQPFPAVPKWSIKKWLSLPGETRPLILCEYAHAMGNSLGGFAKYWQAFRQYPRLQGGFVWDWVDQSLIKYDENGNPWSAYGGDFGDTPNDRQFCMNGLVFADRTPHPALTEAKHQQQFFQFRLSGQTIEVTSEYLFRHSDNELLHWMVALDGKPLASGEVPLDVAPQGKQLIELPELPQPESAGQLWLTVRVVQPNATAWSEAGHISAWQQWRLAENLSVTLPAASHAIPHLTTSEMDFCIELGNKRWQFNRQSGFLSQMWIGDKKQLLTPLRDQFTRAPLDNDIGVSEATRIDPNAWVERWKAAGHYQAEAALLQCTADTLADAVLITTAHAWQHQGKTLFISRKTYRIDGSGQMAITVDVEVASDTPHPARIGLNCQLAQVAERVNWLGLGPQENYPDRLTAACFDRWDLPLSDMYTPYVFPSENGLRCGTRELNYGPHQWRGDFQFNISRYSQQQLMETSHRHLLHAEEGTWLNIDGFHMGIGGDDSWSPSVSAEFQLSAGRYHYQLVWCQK

[13] = target: Heat shock protein HSP 90-alpha (Homo sapiens, UniProt P07900); assay type: functional, organism-based
[14] = tested on: Streptococcus sp. 'group A'; experiment: Streptococcus pyogenes SK(-)GAS viability under kanamycin – luminescence, BacTiterGlo, confirmation, counter-screen for streptokinase expression inhibitor project, dose response (AID 1900); assay type: functional, organism-based
[15] = tested on: Streptococcus; experiment: GAS UMAA2166 growth inhibition – luminescence, BacTiterGlo, counter-screen for streptokinase expression inhibitor project, dose response (AID 1915); assay type: functional, organism-based;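 further: potency for reduction of bacterial viability or growth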

T1 sequence (P65502 whole entry): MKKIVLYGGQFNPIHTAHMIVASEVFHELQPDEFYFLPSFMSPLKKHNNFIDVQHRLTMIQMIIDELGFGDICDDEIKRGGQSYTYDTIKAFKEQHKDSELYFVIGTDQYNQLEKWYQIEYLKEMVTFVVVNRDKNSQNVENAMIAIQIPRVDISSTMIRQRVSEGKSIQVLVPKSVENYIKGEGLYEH

Cc1ccc(Nc2nnc(SCC(O)=C(C#N)c3nc4ccccc4[nH]3)s2)c(C)c1
IC50 [1]: 26.7 µM (active) | IC50 [2]: 8.52 µM (active)

CCCc1nnc(SCC(=O)Nc2ccc(C(=O)OCC)cc2)o1
IC50 [3]: 1.61 µM (active) | IC50 [4]: 35.9 µM (inactive) | IC50 [5]: 35.9 µM (inactive)

CC1=C(C(=O)c2ccccc2)C(c2ccc(N3CCOCC3)cc2)NC(=O)N1 (stereo not drawn)
IC50 [6]: 15.5 µM (active) | IC50 [7]: 17.1 µM (active) | IC50 [8]: > 100 µM (inactive)

N#CCSc1ccccc1NC(=O)CN1C(=O)C2CC=CCC2C1=O (stereo not drawn)
IC50 [3]: 2.83 µM (active) | IC50 [4]: 35.9 µM (inactive) | IC50 [5]: 6.85 µM (active)

COc1ccc(/C=C2\SC(=S)N(C(C)C(=O)NC3C=CS(=O)(=O)C3)C2=O)cc1 (stereo not drawn)
AC50 [9]: 2.73 µM (active)

O=C(N[C@H]1CC[C@H](CCn2cc(-c3ccccn3)nn2)O[C@H]1CO)c1ccccc1
AC50 [10]: 78.4 µM (active)

NC(=O)c1ccccc1NCC(=O)c1ccc(F)cc1
IC50 [11]: 21.6 µM (not active) | EC50 [12]: > 40 µM (inactive)

CCOc1ccc(CCNC(=O)c2nnn(CC(=O)Nc3ccc(C)cc3)c2N)cc1OCC
IC50 [6]: > 100 µM (inactive) | IC50 [7]: 13.1 µM (active) | IC50 [8]: > 100 µM (inactive)

Cc1cc(Cl)ccc1C(=O)C1CCCN(C(=O)c2cncs2)C1 (stereo not drawn)
AC50 [13]: 3.92 µM (active)

Oc1cccc2ccc(/C=C/c3cccs3)nc12
IC50 [11]: 10.3 µM (active) | EC50 [14]: 1.92 µM (active) | EC50 [15]: 4.2 µM (active) | EC50 [12]: > 40 µM (inactive)

COc1ccc(NN=C2C(=O)CC(C)(C)CC2=O)c(OC)c1
IC50 [6]: 27.3 µM (active) | IC50 [7]: 27 µM (active) | IC50 [8]: > 100 µM (inactive)

CCc1ccccc1NC(=O)CSc1nnc([C@@H]2CCCN2C(=O)OC(C)(C)C)o1
IC50 [3]: 1.86 µM (active) | IC50 [4]: 35.9 µM (inactive) | IC50 [5]: 12 µM (inactive)

N=C(N)NC(=O)c1nc(Cl)c(N)nc1N
AC50 [9]: 9.17 µM (active)

O=C(CCCNC(=O)c1ccc(Cl)cc1)OCc1cccc(Br)c1
AC50 [13]: 5.23 µM (active)

Fc1ccc(NC(S)=Nc2ccc(Cl)cc2Cl)cc1
IC50 [11]: > 40 µM (not active) | EC50 [12]: > 40 µM (inactive)

CC(=O)c1cccc(NC(=O)CCc2nc3sc4c(c3c(=O)[nH]2)CCCC4)c1
IC50 [6]: 35.5 µM (active) | IC50 [7]: 33.9 µM (active) | IC50 [8]: > 100 µM (inactive)

C=CCn1c(=O)/c(=C2/Sc3cc(OC)ccc3N2C)s/c1=C1\C(=O)N(CC)C(=S)N1C
IC50 [11]: > 40 µM (not active) | EC50 [12]: > 40 µM (inactive)
